This is an account of results in patent publication US8383816B2, “Aryl-quinolyl compounds and their use” (Cancer Research Technology Limited, priority 2008, dated 2013).

The structures appear in SMILES notation. “And” between values parts separate entries of the source, which are not always exact repeats. Identical values can stand only once.

The target of assay [1] is B-RAF (Homo sapiens, UniProt P15056, V600E). Briefly: DELFIA Kinase Assay. The format is biochemical. To be noted: 100 μM ATP. Here is the method:
Biological Methods—DELFIA Kinase Assay
Compounds were assessed by a kinase assay performed according to the following protocol.
DELFIA Kinase Buffer (DKB):
DKB1 (DKB with B-RAF and MEK Protein):
Combine 4950 μL of DKB and 50 μL of 2.5 mg/ml GST-MEK stock (to give […] of MEK per 40 μL). Then add 22.5 μL of B-RAF to give ˜0.2 μL of B-RAF per 40 μL.
DKB2 (DKB with MEK Protein):
Combine 4950 μL of DKB and 50 μL of 2.5 mg/ml GST-MEK stock (to give 1 mg of MEK per 40 μL). Use 500 μL of this for the blow out (BO) and the empty vector (EV) control.
100 mM stock, dilute to 500 μM to give 100 μM final concentration in assay.
Inhibitors (Test Compounds):
Phospho-MEK½ CST #9121S diluted 1:1000 in DELFIA assay buffer (AB). Preincubate antibody in the AB for 30 minutes at room temperature prior to use.
Anti-rabbit-Eur labelled secondary Perkin Elmer #AD0105 diluted 1:1000 in DELFIA assay buffer (AB). Preincubate antibody in the AB for 30 minutes at room temperature prior to use. (Primary and secondary antibodies were incubated together.)
1. Preblock wells with 5% milk in TBS for 1 hour.
2. Wash wells with 3× with 200 μL TBS.
3. Plate out 40 μL of DKB1 for all inhibitors (test compounds), DMSO control, and optionally other control compounds.
4. Plate out 40 μL of DKB2 for BO and EV wells.
5. Add inhibitors (test compounds) at 0.5 μL per well according to desired plate layout.
6. Add 0.5 μL DMSO to vehicle control wells.
7. Add 2 μL of B-RAF to BO and EV wells.
8. Pre-incubate with inhibitors (test compounds) for 10 minutes at room temperature with shaking.
9. Add 10 μL of 500 μM ATP stock, in DKB, to give 100 μM assay concentration.
10. Seal plates with TopSeal and incubate at room temperature with shaking for 45 minutes.
11. Wash plates 3× with 200 μL 0.1% Tween20/Water to terminate reaction.
12. Add 50 μL per well of antibody mix and incubate for 1 hour at room temperature with shaking.
13. Wash plates 3× with 200 μL 0.1% Tween20/Water.
14. Add 100 μL DELFIA enhancement solution per well, cover in foil, and incubate at room temperature for 30 minutes with shaking.
15. Read on Victor using Europium protocol.
(§1) Values for the blank (Empty Vector) are subtracted from all values. The DMSO controls are set as 100% activity and assay points (the response) are calculated as a percentage of the DMSO control. Data are plotted using Graphpad Prism software and a non-linear regression line is calculated using a variable slope sigmoidal dose-response equation (Y=Bottom+(Top−Bottom)/(1+10^((LogEC50−X)*HillSlope)) where X is the logarithm of concentration. Y is the response). The IC50 generated by this procedure is the concentration of the drug that produces a percentage control fluorescence value midway between the saturation, and zero-effect plateaus. Three independent assays are usually performed and the mean IC50 is reported.

For assay [2], the system named is WM266.4 melanoma cells. Briefly: SRB Cell Proliferation Assay (SRB GI50). The format is cell-based. To be noted: Homo sapiens, WM 266-4, 144 h, 6 days growth. The method, then:
Biological Methods—SRB Cell Proliferation Assay (SRB GI50)
Cultures of WM266.4 melanoma cells are routinely cultured in DMEM/10% foetal bovine serum, at 37° C., in 5% CO2 water saturated atmosphere. Cultures are maintained in exponential growth phase by sub-culturing before having become confluent (3-5 day intervals). Single cell suspensions are prepared by harvesting an 80 cm^2 tissue culture flask with 5 mL commercial trypsin EDTA. After 5 minutes, the detached cells are mixed with 5 mL fully complemented culture medium and centrifugally pelleted (1000 rpm for 7 minutes). After aspirating the supernatant, the cell pellet is re-suspended in 10 mL fresh medium and the cells fully disaggregated by drawing the whole volume up/down 5 times through a 19-gauge needle. The concentration of the cells is determined using a haemocytometer (1/10 dilution). A suitable volume to give at least a 2-fold excess for the number of tests being conducted, typically 100-200 mL, is prepared by diluting the cell suspension to 10,000/mL, and 100 μL/well dispensed into 96 well plates using a programmable 8-channel peristaltic pump, giving 1000 cells/well, leaving column 12 blank. The plates are returned to the incubator for 24 hours to allow the cells to re-attach.
The compounds being tested are prepared at 20 mM in dimethylsulphoxide. Aliquots (200 μL) are diluted into 20 mL culture medium giving 200 μM, and 10 serial dilutions of 3× performed by transferring 5 mL to 10 mL. Aliquots (100 μL) of each dilution are added to the wells, using an 8-channel pipettor, thus performing a final further 2× dilution, and giving doses ranging from 100 μM to 0.005 μM. Column 11 receives plain culture medium only. Each compound is tested in quadruplicate, each replicate being the average of four wells, and two plates per compound.
After a further 6 days growth, the plates are emptied, and the cells are fixed in 10% trichloroacteic acid for 10 minutes on ice. After thorough rinsing in running tap water, the plates are dried, and stained by adding 50 μL of a solution of 0.1% sulphorhodamine-B in 1% acetic acid, for 10 minutes at room temperature. The stain is poured out and the plates thoroughly rinsed under a stream of 1% acetic acid, thus removing unbound stain, and dried. The bound stain is taken into solution by addition of 150 μL Tris buffer pH 8, followed by 10 minutes on a plate-shaker (approximately 500 rpm). The absorbance at 540 nm in each well (being proportional to the number of cells present) is determined using a plate reader.
After averaging the results in rows A-D and E-H, the blank value (row 12) is subtracted, and results expressed as percentage of the untreated value (row 11). […] The GI50 generated by this procedure is the concentration of the drug that produces a percentage control A540 midway between the saturation, and zero-effect plateaus.

The test system of assay [3] is pERK. Briefly: Cell Based Phospho-ERK Assay. The note with it: 6 h, cells incubated with test compound for 6 hours. The method, then:
Biological Methods—Cell Based Phosho-ERK Assay
Compounds were assessed using a cell-based assay which was performed according to the following protocol.
Plate out 16,000 cells/well in 99 μL medium in a 96-well plate.
1. Add 1 μL inhibitor to the cells […].
2. Incubate the cells with test compound for 6 hours at 37° C.
3. Aspirate off the solution from all of the wells.
4. Fixate the cells with 100 μL 4% formaldehyde/0.25% Triton X-100 PBS per well.
5. Incubate the plate for 1 hour at 4° C.
6. Aspirate off the fixing solution and add 300 μL TBS per well.
7. Leave the plate overnight at 4° C.
1. Wash the plate 2× with 200 μL PBS per well.
2. Block with 100 μL 5% dried milk in TBS.
3. Incubate the plate for 20 minutes at 37° C.
4. Wash the plate 2× with 0.1% tween/H2O.
5. Add 50 μL of 3 μg/mL primary antibody pERK (Sigma M8159), diluted in 5% milk powder/TBS, to each well.
6. Incubate the plate for 2 hours at 37° C.
7. Wash the plate 3× with 0.1% tween/H2O.
8. Add 50 μL of 0.45 μg/mL secondary Europium-labelled anti-mouse antibody (Perkin Elmer) to each well.
9. Incubate the plate for 1 hour at 37° C.
10. Wash the plate 3× with 0.1% tween/H2O.
11. Add 100 μL enhancement solution (Perkin Elmer) to each well.
12. Leave the plate for approximately 10 minutes at room temperature before gently shaking the plate.
13. Read Europium Time Resolved Fluorescence in Victor2.
14. Wash the plate 2× with 0.1% tween/H2O.
15. Measure the protein concentration with BCA (Sigma) by adding 200 μL of solution per well.
16. Incubate the plate for 30 minutes at 37° C.
17. Read absorbance levels at 570 nm in a plate reader.
Note that Europium counts are normalised for protein levels by dividing counts by absorbance.
as §1, with “(no cells)” for “(Empty Vector)”

B-RAF, sequence (P15056 whole entry V600E): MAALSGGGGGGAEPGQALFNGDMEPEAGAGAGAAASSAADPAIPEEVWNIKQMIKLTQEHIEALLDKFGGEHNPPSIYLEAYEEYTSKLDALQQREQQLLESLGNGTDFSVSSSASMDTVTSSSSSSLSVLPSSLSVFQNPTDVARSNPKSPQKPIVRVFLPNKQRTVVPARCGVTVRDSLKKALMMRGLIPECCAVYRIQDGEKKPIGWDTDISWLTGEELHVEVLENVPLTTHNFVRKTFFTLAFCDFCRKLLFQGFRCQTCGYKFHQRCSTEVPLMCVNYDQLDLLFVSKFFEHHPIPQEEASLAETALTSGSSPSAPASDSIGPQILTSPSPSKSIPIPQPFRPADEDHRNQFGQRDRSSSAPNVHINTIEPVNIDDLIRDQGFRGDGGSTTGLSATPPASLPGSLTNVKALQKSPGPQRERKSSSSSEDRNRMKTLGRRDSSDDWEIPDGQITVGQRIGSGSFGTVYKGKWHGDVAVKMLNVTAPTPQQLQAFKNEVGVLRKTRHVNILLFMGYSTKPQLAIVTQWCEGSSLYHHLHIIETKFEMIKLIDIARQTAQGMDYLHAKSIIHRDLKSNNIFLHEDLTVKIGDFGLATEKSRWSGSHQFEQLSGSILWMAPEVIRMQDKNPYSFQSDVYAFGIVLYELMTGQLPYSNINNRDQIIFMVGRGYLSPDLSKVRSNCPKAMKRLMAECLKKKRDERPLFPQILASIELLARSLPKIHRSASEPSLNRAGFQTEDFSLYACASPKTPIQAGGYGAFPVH

`O=C(Nc1cc(C(F)(F)F)ccc1F)Nc1ccc(Oc2ccnc3[nH]c(=O)[nH]c23)c2ncccc12` [AA-001, 4-[(5-Amino-quinolinyl-8-oxy)carbonylamino-(2-fluoro-5-trifloromethylphenyl)]-pyridin-5,6-imidazolone] displayed an IC50 in assay [1] of at most 1 µM. The molecule also gave a concentration for 50% growth inhibition (GI50) in assay [2] of at most 10 µM.
`O=C(Nc1ccc(Cl)c(C(F)(F)F)c1)Nc1ccc(Oc2ccnc3[nH]c(=O)[nH]c23)c2ncccc12` [AA-002, 4-[(8-Oxy-quinolinyl-5-amino)carbonylamino-(3-trifluoromethyl-4-chloro-phenyl)]-pyridin-5,6-imidazolone] returned an IC50 in assay [1] of at most 1 µM.
Turning to `CC(C)(C)c1cc(NC(=O)Nc2ccc(Oc3ccnc4[nH]c(=O)[nH]c34)c3cccnc23)n(-c2ccccc2)n1` [AA-005, 4-[(5-Oxy-quinolinyl-8-amino)carbonyl-amino-(1-N-phenyl-3-t-butyl-pyrazol-5-yl)]-pyridin-5,6-imidazolone], the IC50 was at most 1 µM in assay [1] and at most 10 µM in assay [3]. Also, the GI50 in assay [2] is at most 10 µM.
As to `CC(C)(C)c1cc(NC(=O)Nc2ccc(Oc3ccnc4[nH]c(=O)[nH]c34)c3ncccc23)n(-c2ccccc2)n1` [AA-006, 4-[(8-Oxy-quinolinyl-5-amino)carbonyl-amino-(1-N-phenyl-3-t-butyl-pyrazol-5-yl)]-pyridin-5,6-imidazolone], the half-maximal inhibitory concentration (IC50) in assay [3] is at most 10 µM. This molecule yielded a 50% growth inhibitory concentration (GI50) in assay [2] of at most 10 µM.
As to `O=C(Nc1ccc(Cl)c(C(F)(F)F)c1)Nc1ccc(Oc2ccnc3[nH]c(=O)[nH]c23)c2cccnc12` [AA-007, 4-[(5-Oxy-quinolinyl-8-amino)carbonylamino-(3-trifluoromethyl-4-chloro-phenyl)]-pyridin-5,6-imidazolone], the figures for the half-inhibitory concentration (IC50) in assay [1] and in assay [3] were at most 1 µM and at most 10 µM, respectively. In assay [2], this molecule had a 50% growth inhibitory concentration (GI50) of at most 10 µM.
For `O=C(Nc1cccc(C(F)(F)F)c1)Nc1ccc(Oc2ccnc3[nH]c(=O)[nH]c23)c2cccnc12` [AA-008, 4-[(5-Oxy-quinolinyl-8-amino)carbonylamino-(3-trifluoromethyl-phenyl)]-pyridin-5,6-imidazolone], the 50% inhibitory concentration (IC50) is at most 1 µM in assay [1] and at most 10 µM in assay [3]. Also, in assay [2], the 50% growth inhibitory concentration (GI50) was at most 10 µM.
In assay [3], `Cc1ccc(-n2nc(C(C)(C)C)cc2NC(=O)Nc2ccc(Oc3ccnc4[nH]c(=O)n(C)c34)c3cccnc23)cc1` [AA-011, 4-[(5-Oxy-quinolinyl-8-amino)carbonyl-amino-(1-N-p-tolyl-3-t-butyl-pyrazol-5-yl)]-pyridin-5-N-methyl,6-imidazolone] returned an IC50 of at most 10 µM. In assay [2], this molecule had a concentration for 50% growth inhibition (GI50) of at most 10 µM.
`Cn1c(=O)[nH]c2nccc(Oc3ccc(NC(=O)Nc4cc(C(C)(C)C)nn4-c4ccccc4)c4ncccc34)c21` [AA-012, 4-[(5-Oxy-quinolinyl-8-amino)carbonyl-amino-(1-N-phenyl-3-t-butyl-pyrazol-5-yl)]-pyridin-5-N-methyl,6-imidazolone]: the IC50 in assay [1] is ≤ 1 µM and 1 µM.
As for `Cn1c(=O)[nH]c2c(Oc3ccc(NC(=O)Nc4cc(C(F)(F)F)ccc4F)c4ncccc34)ccnc21` [AA-013, 5-[(8-Amino-quinolinyl-5-oxy)carbonylamino-3-(2-fluoro-5-trifluoromethyl-phenyl)]-Pyridin-[2,3]-N-methylimidazol-2-one], the values for the IC50 in assay [1] and in assay [3] were at most 1 µM and at most 10 µM, respectively.
On to `Cc1ccc(-n2nc(C(C)(C)C)cc2NC(=O)Nc2ccc(Oc3ccnc4c3[nH]c(=O)n4C)c3cccnc23)cc1` [AA-015], for which the concentration for half-maximal inhibition (IC50) in assay [3] is at most 10 µM. The GI50 in assay [2] was at most 10 µM.
With `Cn1c(=O)[nH]c2c(Oc3ccc(NC(=O)Nc4cc(C(C)(C)C)nn4-c4ccccc4)c4ncccc34)ccnc21` [AA-016], the concentration for half-maximal inhibition (IC50) in assay [3] was at most 10 µM. The molecule also displayed a GI50 in assay [2] of at most 10 µM.
Molecule `Cc1ccc(-n2nc(C(C)(C)C)cc2NC(=O)Nc2ccc(Oc3ccnc4[nH]c(=O)c(C)nc34)c3cccnc23)cc1` [BB-002, 5-[(8-Amino-quinolinyl-5-oxy)carbonylamino-5-(1-N-p-tolyl-3-t-butyl-imidazolyl)]-pyridin-[2,3]-3-methylpyrazin-2-one] registered a concentration for half-maximal inhibition (IC50) in assay [3] of at most 10 µM. This molecule also registered a GI50 in assay [2] of at most 10 µM.
Turning to `CC(C)(C)c1cc(NC(=O)Nc2ccc(Oc3ccnc4ncc(=O)[nH]c34)c3cccnc23)n(-c2ccccc2)n1` [BB-010], the half-maximal inhibitory concentration (IC50) in assay [3] was at most 10 µM. Further, the GI50 in assay [2] is at most 10 µM.

For orientation: IC50 means the point on the concentration scale where inhibition reaches its midpoint. A high value points to weaker potency. The GI50 is the concentration at which growth is held to half of that of the control. Higher therefore signals lower sensitivity of the cells.
